Values joined by “and” are separate entries in the source; they are usually repeats but may differ in a detail not shown here. Equal values may be shown once. Toxic doses and inconclusive results are not listed.
Tested on: L1210 leukemia ip in BDF1 mice, survival T/C
Experiment: NCI In Vivo Anticancer Drug Screen. Data for tumor model L1210 Leukemia (intraperitoneal) in B6D2F1 (BDF1) mice
Conditions: endpoint: mean survival time, higher = longer survival
How it was run: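 Each compound was tested against a transplantable tumor grown in mice. The endpoint was survival, with treated animals benchmarked against vehicle controls as a simple ratio.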

[1] = dose: 50.0 mg/kg/injection, schedule: Q01DX009 (ip), vehicle: Klucel (hydroxypropylcellulose) (HPC)
[2] = dose: 100.0 mg/kg/injection, schedule: Q01DX009 (ip), vehicle: Klucel (hydroxypropylcellulose) (HPC)
[3] = dose: 100.0 mg/kg/injection, schedule: Q04DX003 (ip), vehicle: Klucel (hydroxypropylcellulose) (HPC)
[4] = dose: 200.0 mg/kg/injection, schedule: Q04DX003 (ip), vehicle: Klucel (hydroxypropylcellulose) (HPC)
[5] = dose: 100.0 mg/kg/injection, schedule: Q01DX009 (ip), vehicle: saline
[6] = dose: 200.0 mg/kg/injection, schedule: Q01DX009 (ip), vehicle: saline
[7] = dose: 200.0 mg/kg/injection, schedule: Q01DX009 (ip), vehicle: Klucel (hydroxypropylcellulose) (HPC)
[8] = dose: 400.0 mg/kg/injection, schedule: Q01DX009 (ip), vehicle: Klucel (hydroxypropylcellulose) (HPC)
[9] = dose: 100.0 mg/kg/injection, schedule: Q04DX002 (ip), vehicle: saline with Tween-80
[10] = dose: 200.0 mg/kg/injection, schedule: Q04DX002 (ip), vehicle: saline with Tween-80

CCCCN(C)N=Nc1c(C(N)=O)n[nH]c1C
T/C (dose: 1.0 mg/kg/injection, schedule: Q03HX008 (ip), vehicle: Klucel (hydroxypropylcellulose) (HPC)): 93 % of control
T/C (dose: 2.0 mg/kg/injection, schedule: Q03HX008 (ip), vehicle: Klucel (hydroxypropylcellulose) (HPC)): 99 % of control
T/C (dose: 4.0 mg/kg/injection, schedule: Q03HX008 (ip), vehicle: Klucel (hydroxypropylcellulose) (HPC)): 100 % of control
T/C (dose: 4.0 mg/kg/injection, schedule: Q03HX016 (ip), vehicle: Klucel (hydroxypropylcellulose) (HPC)): 99 % of control
T/C (dose: 4.0 mg/kg/injection, schedule: Q03HX024 (ip), vehicle: Klucel (hydroxypropylcellulose) (HPC)): 107 % of control
T/C (dose: 8.0 mg/kg/injection, schedule: Q01DX009 (ip), vehicle: Klucel (hydroxypropylcellulose) (HPC)): 102 % of control
T/C (dose: 8.0 mg/kg/injection, schedule: Q03HX008 (ip), vehicle: Klucel (hydroxypropylcellulose) (HPC)): 102 % of control
T/C (dose: 8.0 mg/kg/injection, schedule: Q03HX016 (ip), vehicle: Klucel (hydroxypropylcellulose) (HPC)): 100 % of control
T/C (dose: 8.0 mg/kg/injection, schedule: Q03HX024 (ip), vehicle: Klucel (hydroxypropylcellulose) (HPC)): 108 % of control
T/C (dose: 8.8 mg/kg/injection, schedule: Q01DX007 (ip), vehicle: Klucel (hydroxypropylcellulose) (HPC)): 114 % of control
T/C (dose: 10.0 mg/kg/injection, schedule: Q01DX009 (ip), vehicle: Klucel (hydroxypropylcellulose) (HPC)): 109 % of control
T/C (dose: 13.2 mg/kg/injection, schedule: Q01DX007 (ip), vehicle: Klucel (hydroxypropylcellulose) (HPC)): 120 % of control
T/C (dose: 15.0 mg/kg/injection, schedule: Q01DX009 (ip), vehicle: Klucel (hydroxypropylcellulose) (HPC)): 111 % of control
T/C (dose: 16.0 mg/kg/injection, schedule: Q01DX009 (ip), vehicle: Klucel (hydroxypropylcellulose) (HPC)): 114 % of control
T/C (dose: 16.0 mg/kg/injection, schedule: Q03HX016 (ip), vehicle: Klucel (hydroxypropylcellulose) (HPC)): 119 % of control
T/C (dose: 32.0 mg/kg/injection, schedule: Q01DX001 (ip), vehicle: Klucel (hydroxypropylcellulose) (HPC)): 101 % of control
T/C (dose: 32.0 mg/kg/injection, schedule: Q03HX024 (ip), vehicle: Klucel (hydroxypropylcellulose) (HPC)): 105 % of control
T/C (dose: 32.0 mg/kg/injection, schedule: Q04DX003 (ip), vehicle: Klucel (hydroxypropylcellulose) (HPC)): 105 % of control
T/C (dose: 32.0 mg/kg/injection, schedule: Q08DX002 (ip), vehicle: Klucel (hydroxypropylcellulose) (HPC)): 105 % of control
T/C (dose: 45.0 mg/kg/injection, schedule: Q01DX009 (ip), vehicle: Klucel (hydroxypropylcellulose) (HPC)): 150 % of control
T/C (dose: 64.0 mg/kg/injection, schedule: Q01DX001 (ip), vehicle: Klucel (hydroxypropylcellulose) (HPC)): 105 % of control
T/C (dose: 64.0 mg/kg/injection, schedule: Q04DX003 (ip), vehicle: Klucel (hydroxypropylcellulose) (HPC)): 119 % of control
T/C (dose: 64.0 mg/kg/injection, schedule: Q08DX002 (ip), vehicle: Klucel (hydroxypropylcellulose) (HPC)): 115 % of control
T/C (dose: 67.5 mg/kg/injection, schedule: Q01DX009 (ip), vehicle: Klucel (hydroxypropylcellulose) (HPC)): 113 % of control
T/C (dose: 128.0 mg/kg/injection, schedule: Q01DX001 (ip), vehicle: Klucel (hydroxypropylcellulose) (HPC)): 121 % of control
T/C (dose: 128.0 mg/kg/injection, schedule: Q08DX002 (ip), vehicle: Klucel (hydroxypropylcellulose) (HPC)): 124 % of control
T/C (dose: 177.0 mg/kg/injection, schedule: Q01DX001 (ip), vehicle: carboxymethylcellulose (CMC)): 124 % of control

O=CN/N=C/c1cc(=O)[nH]c(=O)[nH]1
T/C (dose: 100.0 mg/kg/injection, schedule: Q01DX001 (ip), vehicle: saline): 87 % of control
T/C (dose: 200.0 mg/kg/injection, schedule: Q01DX001 (ip), vehicle: saline): 87 % of control
T/C (dose: 400.0 mg/kg/injection, schedule: Q01DX001 (ip), vehicle: saline): 93 % of control

CN(C)CC1C2C=CC(C3CC23)C1CN(C)C (stereo not given)
T/C (dose: 25.0 mg/kg/injection, schedule: Q01DX009 (ip), vehicle: Klucel (hydroxypropylcellulose) (HPC)): 113 % of control
T/C (dose: 25.0 mg/kg/injection, schedule: Q04DX003 (ip), vehicle: Klucel (hydroxypropylcellulose) (HPC)): 94 % of control
T/C [1]: 107 % of control
T/C (dose: 50.0 mg/kg/injection, schedule: Q04DX003 (ip), vehicle: Klucel (hydroxypropylcellulose) (HPC)): 102 % of control
T/C [2]: 108 % of control
T/C [3]: 94 % of control and 92 % of control
T/C [4]: 89 % of control

Cc1cc(NS(=O)(=O)c2ccc(N)cc2)no1
T/C [5]: 97 % of control
T/C (dose: 100.0 mg/kg/injection, schedule: Q04DX003 (ip), vehicle: saline): 104 % of control
T/C [6]: 94 % of control
T/C (dose: 200.0 mg/kg/injection, schedule: Q04DX003 (ip), vehicle: saline): 99 % of control
T/C (dose: 400.0 mg/kg/injection, schedule: Q01DX009 (ip), vehicle: saline): 96 % of control
T/C (dose: 400.0 mg/kg/injection, schedule: Q04DX003 (ip), vehicle: saline): 114 % of control

Cn1cnc2c1c(=O)[nH]c(=O)n2C
T/C [2]: 93 % of control
T/C [5]: 95 % of control
T/C [7]: 86 % of control
T/C [6]: 92 % of control
T/C [8]: 89 % of control

C/C(N=Nc1ccccc1[N+](=O)[O-])=N\Nc1ccccc1
T/C [1]: 95 % of control
T/C [2]: 97 % of control
T/C [7]: 95 % of control
T/C [8]: 95 % of control

COCc1c(C)[nH]c2ccc(N(C)C)cc2c1=O
T/C (dose: 100.0 mg/kg/injection, schedule: Q01DX009 (ip), vehicle: saline with Tween-80): 97 % of control
T/C (dose: 200.0 mg/kg/injection, schedule: Q01DX009 (ip), vehicle: saline with Tween-80): 103 % of control
T/C (dose: 400.0 mg/kg/injection, schedule: Q01DX009 (ip), vehicle: saline with Tween-80): 105 % of control

NC(=O)Nc1ncn[nH]1
T/C [9]: 95 % of control
T/C [10]: 95 % of control
T/C (dose: 400.0 mg/kg/injection, schedule: Q04DX002 (ip), vehicle: saline with Tween-80): 95 % of control

O=C(S)c1ccccc1.[Pb]
T/C [9]: 87 % of control
T/C [10]: 108 % of control

Nc1c(C(=O)O)ccc2c1C(=O)c1ccccc1C2=O
T/C (dose: 25.0 mg/kg/injection, schedule: Q04DX003 (ip), vehicle: gum acacia): 103 % of control
T/C (dose: 50.0 mg/kg/injection, schedule: Q04DX003 (ip), vehicle: gum acacia): 100 % of control
T/C (dose: 100.0 mg/kg/injection, schedule: Q04DX003 (ip), vehicle: gum acacia): 103 % of control and 108 % of control
T/C (dose: 200.0 mg/kg/injection, schedule: Q04DX003 (ip), vehicle: gum acacia): 97 % of control

CC(=O)c1ccc(C(C)=O)c(OCc2ccccc2)c1
T/C [2]: 101 % of control
T/C [3]: 103 % of control
T/C [7]: 95 % of control
T/C [4]: 98 % of control
T/C [8]: 92 % of control
T/C (dose: 400.0 mg/kg/injection, schedule: Q04DX003 (ip), vehicle: Klucel (hydroxypropylcellulose) (HPC)): 97 % of control

S=C(Nc1ccccc1)Nc1ccc(Br)cc1
T/C (dose: 100.0 mg/kg/injection, schedule: Q04DX002 (ip), vehicle: Klucel (hydroxypropylcellulose) (HPC)): 101 % of control
T/C (dose: 200.0 mg/kg/injection, schedule: Q04DX002 (ip), vehicle: Klucel (hydroxypropylcellulose) (HPC)): 105 % of control
T/C (dose: 400.0 mg/kg/injection, schedule: Q04DX002 (ip), vehicle: Klucel (hydroxypropylcellulose) (HPC)): 97 % of control

CC(=O)c1cc(C)c(C)cc1C
T/C (dose: 100.0 mg/kg/injection, schedule: Q01DX001 (ip), vehicle: carboxymethylcellulose (CMC)): 100 % of control
T/C (dose: 200.0 mg/kg/injection, schedule: Q01DX001 (ip), vehicle: carboxymethylcellulose (CMC)): 94 % of control
T/C (dose: 400.0 mg/kg/injection, schedule: Q01DX001 (ip), vehicle: carboxymethylcellulose (CMC)): 97 % of control

NC(N)=NCCCS(=O)(=O)Nc1ccc(Nc2c3ccccc3nc3cc([N+](=O)[O-])ccc23)cc1
T/C (dose: 3.0 mg/kg/injection, schedule: Q01DX009 (ip), vehicle: water): 186 % of control
T/C (dose: 6.0 mg/kg/injection, schedule: Q01DX009 (ip), vehicle: water): 160 % of control
T/C (dose: 6.25 mg/kg/injection, schedule: Q04DX002 (ip), vehicle: saline with Tween-80): 102 % of control
T/C (dose: 6.25 mg/kg/injection, schedule: Q04DX003 (ip), vehicle: water): 186 % of control
T/C (dose: 12.5 mg/kg/injection, schedule: Q04DX002 (ip), vehicle: saline with Tween-80): 120 % of control
T/C (dose: 25.0 mg/kg/injection, schedule: Q04DX002 (ip), vehicle: saline with Tween-80): 124 % of control
T/C (dose: 50.0 mg/kg/injection, schedule: Q04DX003 (ip), vehicle: water): 161 % of control
T/C [9]: 150 % of control
T/C [10]: 183 % of control
